# Test results reported in paper PMC11631053, “A receptor-based assay to study the sweet and bitter tastes of sweeteners and binary sweet blends: the SWEET project” (Chemical Senses, 2024).
# Several values for one entry are separate records, joined by “and”; a condition that tells them apart may be missing. Equal entries are not always repeated. Where two headings read alike, the source gives them in different places. Marks after values point to notes of the source that are not given here.
# Experiments:
# [1] = sucrose = 1, cited from earlier work
# TAS2R3 = target: T1, TAS2R3 (Homo sapiens, UniProt Q9NYW6); experiment: Calcium mobilization assay, HEK293T-Gα16gust44 cells expressing TAS2R3; conditions: maximal concentration tested: sucralose 100 mM, neotame 30 µM, Ace-K 300 mM, RebA 4 mM, RebM 4 mM, mogroside V 5 mM, erythritol 200 mM, D-allulose 500 mM, thaumatin 100 mM
# T1 sequence (Q9NYW6 1-316): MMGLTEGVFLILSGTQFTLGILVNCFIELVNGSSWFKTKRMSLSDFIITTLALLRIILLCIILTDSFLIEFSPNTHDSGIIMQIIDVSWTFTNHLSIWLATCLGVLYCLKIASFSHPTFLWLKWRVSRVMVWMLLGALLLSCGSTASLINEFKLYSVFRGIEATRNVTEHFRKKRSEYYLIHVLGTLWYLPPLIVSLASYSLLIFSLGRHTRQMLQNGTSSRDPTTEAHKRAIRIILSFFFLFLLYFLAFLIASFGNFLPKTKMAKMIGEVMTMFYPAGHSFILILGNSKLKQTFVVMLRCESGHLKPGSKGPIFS
# Experimental: (§1) Different concentration ranges were tested depending on the injected sweet compound. […] All of the concentration-receptor combinations were measured in triplicate, and each experiment was repeated at least 3 times. The Ca^2+ change was expressed as a fractional change in fluorescent light intensity: ΔF/F = (F − F0)/F0, where F was the fluorescent light intensity at each point, and F0 was the value of fluorescent light emitted prior to stimulus application. To calculate dose–response relationships, the changes in fluorescence upon stimulus application were averaged, mock-subtracted and baseline-corrected. The resulting obtained dose–response data were adjusted by using a 4-parameter logistic equation. The half-maximal effective concentration (EC50) was calculated by using SigmaPlot software (Systat Software, San Jose, CA, USA) as described in supplemental Supplementary Figs. S1, S2, and S3.
# TAS2R5 = target: T2, TAS2R5 (Homo sapiens, UniProt Q9NYW4); experiment: Calcium mobilization assay, HEK293T-Gα16gust44 cells expressing TAS2R5; conditions: maximal concentration tested: sucralose 100 mM, neotame 30 µM, Ace-K 300 mM, RebA 4 mM, RebM 4 mM, mogroside V 5 mM, erythritol 200 mM, D-allulose 500 mM, thaumatin 100 mM
# T2 sequence (Q9NYW4 1-299): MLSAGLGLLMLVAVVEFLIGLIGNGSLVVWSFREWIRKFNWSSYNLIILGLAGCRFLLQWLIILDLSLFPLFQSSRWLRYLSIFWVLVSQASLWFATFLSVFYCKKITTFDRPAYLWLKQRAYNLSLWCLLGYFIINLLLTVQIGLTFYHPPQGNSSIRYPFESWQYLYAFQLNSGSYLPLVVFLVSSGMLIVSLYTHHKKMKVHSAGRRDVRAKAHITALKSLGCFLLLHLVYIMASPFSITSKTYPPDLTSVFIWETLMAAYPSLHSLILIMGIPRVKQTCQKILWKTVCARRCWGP
# Experimental: as §1
# TAS2R10 = target: T3, TAS2R10 (Homo sapiens, UniProt Q9NYW0); experiment: Calcium mobilization assay, HEK293T-Gα16gust44 cells expressing TAS2R10; conditions: for Response of TAS2R10: maximal concentration tested: sucralose 100 mM, neotame 30 µM, Ace-K 300 mM, RebA 4 mM, RebM 4 mM, mogroside V 5 mM, erythritol 200 mM, D-allulose 500 mM, thaumatin 100 mM
# T3 sequence (Q9NYW0 1-307): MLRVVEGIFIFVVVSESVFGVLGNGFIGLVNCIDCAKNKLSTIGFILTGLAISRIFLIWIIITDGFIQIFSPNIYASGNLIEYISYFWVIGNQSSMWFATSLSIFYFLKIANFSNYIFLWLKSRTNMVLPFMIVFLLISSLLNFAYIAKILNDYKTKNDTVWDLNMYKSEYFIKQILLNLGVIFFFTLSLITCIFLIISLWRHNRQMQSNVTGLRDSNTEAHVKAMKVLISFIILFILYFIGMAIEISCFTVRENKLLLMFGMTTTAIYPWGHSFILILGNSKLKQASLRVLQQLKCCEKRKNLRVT
# Experimental: (§2) Different concentration ranges were tested depending on the injected sweet compound. […] All of the concentration-receptor combinations were measured in triplicate, and each experiment was repeated at least 3 times. The Ca^2+ change was expressed as a fractional change in fluorescent light intensity: ΔF/F = (F − F0)/F0, where F was the fluorescent light intensity at each point, and F0 was the value of fluorescent light emitted prior to stimulus application. To calculate dose–response relationships, the changes in fluorescence upon stimulus application were averaged, mock-subtracted and baseline-corrected. The resulting obtained dose–response data were adjusted by using a 4-parameter logistic equation.
# TAS2R20 = target: T4, TAS2R20 (Homo sapiens, UniProt P59543); experiment: Calcium mobilization assay, HEK293T-Gα16gust44 cells expressing TAS2R20; conditions: maximal concentration tested: sucralose 100 mM, neotame 30 µM, Ace-K 300 mM, RebA 4 mM, RebM 4 mM, mogroside V 5 mM, erythritol 200 mM, D-allulose 500 mM, thaumatin 100 mM
# T4 sequence (P59543 1-309): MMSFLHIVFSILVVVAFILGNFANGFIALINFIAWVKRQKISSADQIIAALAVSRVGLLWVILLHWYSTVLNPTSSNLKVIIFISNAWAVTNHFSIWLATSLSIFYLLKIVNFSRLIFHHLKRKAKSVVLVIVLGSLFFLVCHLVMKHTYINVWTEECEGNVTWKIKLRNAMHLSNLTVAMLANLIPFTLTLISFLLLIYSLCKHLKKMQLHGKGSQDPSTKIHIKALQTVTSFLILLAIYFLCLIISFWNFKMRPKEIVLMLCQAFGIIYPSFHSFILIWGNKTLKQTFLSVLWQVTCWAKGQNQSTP
# Experimental: as §2
# TAS2R38 = target: T5, TAS2R38 (Homo sapiens, UniProt P59533); experiment: Calcium mobilization assay, HEK293T-Gα16gust44 cells expressing TAS2R38; conditions: maximal concentration tested: sucralose 100 mM, neotame 30 µM, Ace-K 300 mM, RebA 4 mM, RebM 4 mM, mogroside V 5 mM, erythritol 200 mM, D-allulose 500 mM, thaumatin 100 mM
# T5 sequence (P59533 1-333): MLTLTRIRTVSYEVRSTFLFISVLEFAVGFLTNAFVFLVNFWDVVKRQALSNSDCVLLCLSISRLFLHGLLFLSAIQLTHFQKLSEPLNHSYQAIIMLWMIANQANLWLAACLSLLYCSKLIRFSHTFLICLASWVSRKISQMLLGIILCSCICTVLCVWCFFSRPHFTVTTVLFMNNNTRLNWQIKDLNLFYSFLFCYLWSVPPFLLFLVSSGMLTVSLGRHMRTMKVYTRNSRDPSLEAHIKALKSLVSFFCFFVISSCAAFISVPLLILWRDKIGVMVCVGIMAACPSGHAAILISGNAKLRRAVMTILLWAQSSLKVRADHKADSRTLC
# Experimental: as §2
# [2] = ref Schiffman and Gatlin (1993)
Compound,Sweetness potency ([1]; ref Jia and Yang (2009)),Response of TAS2R3 (TAS2R3),Response of TAS2R5 (TAS2R5),Response of TAS2R10 (TAS2R10),Response of TAS2R20 (TAS2R20),Response of TAS2R38 (TAS2R38),"Sweetness potency [1, 2]",Sweetness potency ([1]; ref Nofre and Tinti (2000)),Sweetness potency ([1]; ref Ko et al. (2020)),EC50 (TAS2R10; TAS2R10 EC50),Sweetness potency ([1]; ref van der Wel and Loeve (1972)),Sweetness potency ([1]; ref Fujimaru et al. (2012)),Sweetness potency ([1]; ref Prakash et al. (2014))
"C[C@H](CC[C@@H](O[C@@H]1O[C@H](CO[C@@H]2O[C@H](CO)[C@@H](O)[C@H](O)[C@H]2O)[C@@H](O)[C@H](O)[C@H]1O[C@@H]1O[C@H](CO)[C@@H](O)[C@H](O)[C@H]1O)C(C)(C)O)[C@H]1CC[C@@]2(C)[C@@H]3CC=C4[C@@H](CC[C@H](O[C@@H]5O[C@H](CO[C@@H]6O[C@H](CO)[C@@H](O)[C@H](O)[C@H]6O)[C@@H](O)[C@H](O)[C@H]5O)C4(C)C)[C@]3(C)[C@H](O)C[C@]12C [Mogroside V, mogroside V]",500^c,−,−,−,−,+,,,,,,,
"CC1=CC(=O)NS(=O)(=O)O1 [Ace-K, acesulfame-K]",,−,−,−,−,−,200^g,,,,,,
COC(=O)[C@H](Cc1ccccc1)NC(=O)[C@H](CC(=O)O)NCCC(C)(C)C [Neotame],,−,−,−,−,−,,"10,000^a",,,,,
O=C(CO)[C@H](O)[C@H](O)[C@H](O)CO [D-allulose],,−,−,−,−,+,,,0.6^h,,,,
"OC[C@H]1O[C@H](O[C@]2(CCl)O[C@H](CCl)[C@@H](O)[C@@H]2O)[C@H](O)[C@@H](O)[C@H]1Cl [Sucralose, sucralose]",,−,−,#^a,−,−,600^g,,,17 mM and ≥ 3 mM,,,
thaumatin,,−,−,−,−,−,,,,,"100,000^b",,
"OC[C@@H](O)[C@@H](O)CO [Erythritol, erythritol]",,−,−,−,−,−,,,,,,0.9^f,
"C=C1C[C@@]23CC[C@H]4[C@@](C)(CCC[C@@]4(C)C(=O)O[C@@H]4O[C@H](CO)[C@@H](O)[C@H](O[C@@H]5O[C@H](CO)[C@@H](O)[C@H](O)[C@H]5O)[C@H]4O[C@@H]4O[C@H](CO)[C@@H](O)[C@H](O)[C@H]4O)[C@@H]2CC[C@]1(O[C@@H]1O[C@H](CO)[C@@H](O)[C@H](O[C@@H]2O[C@H](CO)[C@@H](O)[C@H](O)[C@H]2O)[C@H]1O[C@@H]1O[C@H](CO)[C@@H](O)[C@H](O)[C@H]1O)C3 [RebM, Rebaudioside M]",,−,−,−,−,−,,,,,,,250^d
